Numbers after ± are expanded uncertainties.
Experiments:
[1] = 298.15 K, 101.33 kPa, Liquid; for speed of sound: Sing-around technique in a fixed-path interferometer; for mass density: Vibrating tube method
[2] = mn = molality of the nth substance listed, in mol/kg; details: 298.15 K, 101 kPa, Liquid; for speed of sound: Sing-around technique in a fixed-path interferometer; for mass density: Vibrating tube method

CCCCCCC [heptane]
[1]
Details | mass density [kg/m3] | speed of sound [m/s]
– | 679.55 ± 1.6 | 1131.4 ± 1.8

c1ccc(-c2cccc(-c3ccccc3)c2)cc1 [m-terphenyl] + C1CCCCC1
[2]
Details | mass density [kg/m3] | speed of sound [m/s]
m1 = 0.0253 | 775.15 ± 1.6 | 1256.5 ± 1.8
m1 = 0.0482 | 776.28 ± 1.6 | 1257.4 ± 1.8
m1 = 0.0693 | 777.33 ± 1.6 | 1258.2 ± 1.8
m1 = 0.0928 | 778.48 ± 1.6 | 1259.2 ± 1.8
m1 = 0.1161 | 779.62 ± 1.6 | 1260.1 ± 1.8

C1CCCCC1 [cyclohexane]
[1]
Details | mass density [kg/m3] | speed of sound [m/s]
– | 773.87 ± 1.6 | 1255.3 ± 1.8

c1ccc(-c2ccccc2)cc1 [biphenyl] + C1CCCCC1
[2]
Details | mass density [kg/m3] | speed of sound [m/s]
m1 = 0.0342 | 774.82 ± 1.6 | 1256 ± 1.8
m1 = 0.0676 | 775.74 ± 1.6 | 1256.7 ± 1.8
m1 = 0.1061 | 776.79 ± 1.6 | 1257.5 ± 1.8
m1 = 0.1335 | 777.52 ± 1.6 | 1258.1 ± 1.8
m1 = 0.1732 | 778.61 ± 1.6 | 1259 ± 1.8

C1CCCCC1 [cyclohexane] + c1ccccc1
[2]
Details | mass density [kg/m3] | speed of sound [m/s]
m2 = 0.162 | 774.73 ± 1.6 | 1254.7 ± 1.8
m2 = 0.3316 | 775.59 ± 1.6 | 1254.2 ± 1.8
m2 = 0.5187 | 776.54 ± 1.6 | 1253.5 ± 1.8
m2 = 0.6616 | 777.26 ± 1.6 | 1253.2 ± 1.8
m2 = 0.8272 | 778.07 ± 1.6 | 1252.7 ± 1.8

c1ccc(-c2ccccc2-c2ccccc2)cc1 [o-terphenyl] + C1CCCCC1
[2]
Details | mass density [kg/m3] | speed of sound [m/s]
m1 = 0.0245 | 775.07 ± 1.6 | 1256.1 ± 1.8
m1 = 0.0451 | 776.06 ± 1.6 | 1256.8 ± 1.8
m1 = 0.0688 | 777.19 ± 1.6 | 1257.5 ± 1.8
m1 = 0.093 | 778.35 ± 1.6 | 1258.4 ± 1.8
m1 = 0.1144 | 779.36 ± 1.6 | 1259 ± 1.8

c1ccc(-c2ccccc2-c2ccccc2)cc1 [o-terphenyl] + CCCCCCC
[2]
Details | mass density [kg/m3] | speed of sound [m/s]
m1 = 0.0267 | 681.11 ± 1.6 | 1132.8 ± 1.8
m1 = 0.0392 | 681.85 ± 1.6 | 1133.5 ± 1.8
m1 = 0.0544 | 682.75 ± 1.6 | 1134.1 ± 1.8
m1 = 0.0652 | 683.4 ± 1.6 | 1134.6 ± 1.8
m1 = 0.0763 | 684.05 ± 1.6 | 1135.2 ± 1.8

c1ccc2ccccc2c1 [naphthalene] + C1CCCCC1
[2]
Details | mass density [kg/m3] | speed of sound [m/s]
m1 = 0.0805 | 775.71 ± 1.6 | 1256.5 ± 1.8
m1 = 0.1659 | 777.64 ± 1.6 | 1257.8 ± 1.8
m1 = 0.2522 | 779.56 ± 1.6 | 1259.1 ± 1.8
m1 = 0.3257 | 781.18 ± 1.6 | 1260.2 ± 1.8
m1 = 0.4055 | 782.91 ± 1.6 | 1261.5 ± 1.8

c1ccc(-c2ccccc2)cc1 [biphenyl] + CCCCCCC
[2]
Details | mass density [kg/m3] | speed of sound [m/s]
m1 = 0.0409 | 681.02 ± 1.6 | 1133 ± 1.8
m1 = 0.0772 | 682.37 ± 1.6 | 1134.4 ± 1.8
m1 = 0.113 | 683.67 ± 1.6 | 1135.6 ± 1.8
m1 = 0.1561 | 685.21 ± 1.6 | 1137 ± 1.8
m1 = 0.1949 | 686.6 ± 1.6 | 1138.3 ± 1.8

c1ccc(-c2cccc(-c3ccccc3)c2)cc1 [m-terphenyl] + CCCCCCC
[2]
Details | mass density [kg/m3] | speed of sound [m/s]
m1 = 0.0245 | 681.04 ± 1.6 | 1133 ± 1.8
m1 = 0.04 | 682 ± 1.6 | 1133.8 ± 1.8
m1 = 0.0536 | 682.83 ± 1.6 | 1134.6 ± 1.8
m1 = 0.0666 | 683.63 ± 1.6 | 1135.3 ± 1.8
m1 = 0.076 | 684.21 ± 1.6 | 1135.9 ± 1.8

c1ccc2c(c1)ccc1ccccc12 [phenanthrene] + CCCCCCC
[2]
Details | mass density [kg/m3] | speed of sound [m/s]
m1 = 0.0349 | 681.3 ± 1.6 | 1133.2 ± 1.8
m1 = 0.0513 | 682.12 ± 1.6 | 1134 ± 1.8
m1 = 0.0739 | 683.26 ± 1.6 | 1135 ± 1.8
m1 = 0.0812 | 683.59 ± 1.6 | 1135.3 ± 1.8
m1 = 0.1012 | 684.63 ± 1.6 | 1136.2 ± 1.8

c1ccc2ccccc2c1 [naphthalene] + CCCCCCC
[2]
Details | mass density [kg/m3] | speed of sound [m/s]
m1 = 0.0934 | 682.41 ± 1.6 | 1134.3 ± 1.8
m1 = 0.1975 | 685.54 ± 1.6 | 1137.2 ± 1.8
m1 = 0.2708 | 687.7 ± 1.6 | 1139.1 ± 1.8
m1 = 0.3725 | 690.68 ± 1.6 | 1141.8 ± 1.8
m1 = 0.4561 | 693.03 ± 1.6 | 1144 ± 1.8

c1ccc2c(c1)ccc1ccccc12 [phenanthrene] + C1CCCCC1
[2]
Details | mass density [kg/m3] | speed of sound [m/s]
m1 = 0.0343 | 775.27 ± 1.6 | 1256.4 ± 1.8
m1 = 0.0591 | 776.28 ± 1.6 | 1257.2 ± 1.8
m1 = 0.0896 | 777.54 ± 1.6 | 1258.2 ± 1.8
m1 = 0.1162 | 778.63 ± 1.6 | 1259 ± 1.8
m1 = 0.1455 | 779.78 ± 1.6 | 1259.8 ± 1.8

c1ccccc1 [benzene] + CCCCCCC
[2]
Details | mass density [kg/m3] | speed of sound [m/s]
m1 = 0.1915 | 681.6 ± 1.6 | 1132.3 ± 1.8
m1 = 0.3783 | 683.56 ± 1.6 | 1133.2 ± 1.8
m1 = 0.5615 | 685.43 ± 1.6 | 1133.9 ± 1.8
m1 = 0.7515 | 687.34 ± 1.6 | 1134.8 ± 1.8
m1 = 0.943 | 689.24 ± 1.6 | 1135.8 ± 1.8

Source: the NIST ThermoML archive (doi:10.1016/j.jct.2009.06.001)
